Patent US20060099568A1, “Signals and molecular species involved in senescence” (priority 2002, published 2006)
Entries after “also recorded” stand apart in the source; their conditions may differ.

How the values were obtained:
[1] = test system: human diploid fibroblasts; test: DNA synthesis, [3H]thymidine incorporation; type: cell-based
Experimental: FIG. 5 represents reduction of growth factor-induced thymidine incorporation in near-senescent fibroblasts. […] The amount of [^3H]thymidine incorporated into DNA over 4 hrs was measured as described. The data represents an average of 3 counts in cpm. A representative experiment of the three is presented in A. Fold increase over the untreated control was calculated and plotted in B.
FIG. 18 represents changes in LPA-induced thymidine incorporation and cell proliferation in near-senescent fibroblasts versus presenescent fibroblasts. Subconfluent presenescent (passage 8, Pa 8) and near-senescent (passage 24, Pa 24) fibroblasts were serum-starved for 2 days and treated with LPA (1-70 μg/ml) for 16 hrs. The amount of [^3H]thymidine incorporated into DNA over 4 hrs was measured as described. The data represents an average of 3 counts in cpm in each independent experiments. A representative experiment of the three is presented in A. Converted fold increase over the untreated control was calculated and plotted in B.
Quiescent cells were labeled with [^3H]thymidine (0.5 μCi/ml) for 4 hrs and the […] radioactive thymidine was removed by washing with PBS. DNA was precipitated with 10% TCA and lysed in 0.5N NaOH. The radioactivity in neutralized lysates was counted in a liquid scintillation cocktail.

[2] = test system: human diploid fibroblasts; test: LPA-stimulated cell proliferation (viable cell count or MTT assay); type: cell-based; settings: 4 days treatment
From the text: The optical density at 570 nm was plotted (A). The actual viable cell numbers were plotted (B).
In order to study the role of LPA-induced cAMP signaling, the inventors further compared LPA-stimulated cell proliferation between presenescent and near-senescent cells. After 4 days treatment with vehicle or LPA, the level of viable cells were counted or measured by MTT assay.

ERK1 and ERK2 = test: ERK activation, phospho-ERK Western blot; type: cell-based, human
Experimental: Serum-starved presenescent (passage 10, Pa 10) and near-senescent (passage 29, Pa 29) fibroblasts were treated with 30 μg/ml LPA for the indicated times. The level of phospho-ERK in the cytosolic fraction from each cell, as an indication of ERK activation, was measured by Western blot analysis employing anti-phospho-ERK antibody.
The expression levels of signaling proteins were examined by Western blot analysis, as described previously (Yeo et al., 2000a). Total cell lysates were prepared in a lysis buffer containing 50 mM Tris-HCl, pH 7.5, containing 150 mM NaCl, 2 mM EDTA, 1 mM EGTA, 1 mM Na3VO4, 10 mM NaF, 1 mM DTT, 1 mM PMSF, 25 μg/ml leupeptin, 25 μg/ml aprotinin, 5 mM benzamidine, and 1% Nonidet P-40. The protein concentrations of the lysates were determined using a BCA protein assay kit, as described by the protocol supplied by the manufacturer. Cell lysates containing equal amounts of protein were resolved by SDS-polyacrylamide gel electrophoresis and transferred onto Immobilon PVDF membranes. […] To examine the level of phospholipase D 1/2, the immunoprecipitated protein obtained using 10 μl of anti-phospholipase D 1 anti-sera (Box45, ESTP4) was analyzed by Western blot against polyclonal anti-phospholipase D 1 antibodies (1:20 dilution of NC STP4 anti-serum).

Phospholipase C (PLC) = settings: near-senescent cells (passage 23) vs presenescent (passage 6); PDGF 50 ng/ml, LPA 1 μg/ml, 20 min, 20 mM LiCl
PKA = test: measurement of protein kinase A activity (Kemptide, [γ-32P]ATP); type: cell-based, human; settings: 30 μg/ml LPA
Experimental: FIG. 10 represents LPA-dependent PKA activity and CREB phosphorylation in presenescent and near-senescent fibroblasts. Subconfluent presenescent (passage 8, Pa 8) and near-senescent (passage 24, Pa 24) fibroblasts were serum-starved for 2 days and treated with 30 μg/ml LPA for the indicated times. The PKA activity (A) was determined in cell homogenates with kemptide and [γ^32P]ATP as substrates. The radioactivity incorporated into kemptide was measured by a beta-counter and the enzyme activity was calculated as pmol/min/mg protein. The data represents an average of triplicate experiments. The level of phospho-CREB (B) was measured by Western blot analysis using an anti-phospho-CREB antibody.
LPA-treated cells were harvested and homogenized in ice-cold homogenization buffer containing 0.25 M sucrose, 10 mM Tris-HCl, pH 7.5, 10 MM MgCl2, 2 mM EGTA, and protease inhibitors. Homogenates were centrifuged at 20,000×g at 4° C. for 20 min. Protein kinase A assays were performed as described previously (Yang et al., 1999). […] The paper was washed once with 0.75% phosphoric acid and the radioactivity incorporated into Kemptide was quantified on a scintillation counter (Model Tri-Carb 1600 CA, Packard Instrument Company). […] PKI-inhibitable kinase activity was calculated and the data were reported as percent of total PKA activity. […]

lysophosphatidic acid [LPA]
fold increase of [3H]thymidine incorporation over untreated control, near-senescent vs presenescent ([1]; 50-70 μg/ml LPA): slightly higher
agonist-induced DNA synthesis ([3H]thymidine incorporation) in near-senescent cells vs presenescent ([1]; near-senescent cells (passage 24)): reduced but less so than PDGF; also recorded: reduced
concentration at which increase of [3H]thymidine incorporation is apparent ([1]; presenescent fibroblasts): 10 µg/mL
concentration at which increase of [3H]thymidine incorporation is maximal ([1]; presenescent fibroblasts): 50 to 70 µg/mL
rate of LPA-stimulated proliferation ([2]; near-senescent cells): partially decreased
cell proliferation ([2]; presenescent cells): stimulated proliferation of presenescent cells dose-dependently
level of phospho-ERK (ERK1 and ERK2; near-senescent HDF (passage 29), 30 μg/ml LPA): did not increase further
ERK1 and ERK2 activation (phospho-ERK) (ERK1 and ERK2; presenescent HDF (passage 10), 30 μg/ml LPA for 10-30 min): stimulated
agonist-stimulated inositol phosphates (IPs) production (Phospholipase C (PLC)): enhanced
PKA activity (PKA; near-senescent cells): increased
PKA activity (PKA; presenescent cells): decreased
